Reference: patent US9416125B2, “Substituted cycloalkenopyrazoles as BUB1 inhibitors for the treatment of cancer” (BAYER PHARMA AKTIENGESELLSCHAFT, priority 2012, dated 2016)

Legend:
[1] = biological target: T1, catalytic domain of human Bub1 (amino acids 704-1085) (Homo sapiens, UniProt O43683); assay: Bub1 kinase assay (TR-FRET); type: biochemical; conditions: 10 μM ATP, 1 μM peptide substrate, median, read-out: Biological Assay 1: Bub1 kinase assay median IC50
T1 construct: catalytic domain of human Bub1 (amino acids 704-1085); His6 (N); made in house; host or cells: Hi5 insect cells
Text: Bub1-inhibitory activities of compounds described in the present invention were quantified using a time-resolved fluorescence energy transfer (TR-FRET) kinase assay which measures phosphorylation of the synthetic peptide Biotin-Ahx-VLLPKKSFAEPG (C-terminus in amide form), purchased from e.g. Biosyntan (Berlin, Germany) by the (recombinant) catalytic domain of human Bub1 (amino acids 704-1085), expressed in Hi5 insect cells with an N-terminal His6-tag and purified by affinity- (Ni-NTA) and size exclusion chromatography.
In a typical assay 11 different concentrations of each compound (0.1 nM, 0.33 nM, 1.1 nM, 3.8 nM, 13 nM, 44 nM, 0.15 μM, 0.51 μM, 1.7 μM, 5.9 μM and 20 μM) were tested in duplicate within the same microtiter plate. To this end, 100-fold concentrated compound solutions (in DMSO) were previously prepared by serial dilution (1:3.4) of 2 mM stocks in a clear low volume 384-well source microtiter plate (Greiner Bio-One, Frickenhausen, Germany), from which 50 nL of compounds were transferred into a black low volume test microtiter plate from the same supplier. Subsequently, 2 μL of Bub1 (the final concentration of Bub1 was adjusted depending on the activity of the enzyme lot in order to be within the linear dynamic range of the assay: typically ˜200 ng/mL were used) in aqueous assay buffer [50 mM Tris/HCl pH 7.5, 10 mM magnesium chloride (MgCl2), 200 mM potassium chloride (KCl), 1.0 mM dithiothreitol (DTT), 0.1 mM sodium ortho-vanadate, 1% (v/v) glycerol, 0.01% (w/v) bovine serum albumine (BSA), 0.005% (v/v) Trition X-100 (Sigma), 1× Complete EDTA-free protease inhibitor mixture (Roche)] were added to the compounds in the test plate and the mixture was incubated for 15 min at 22° C. to allow pre-equilibration of the putative enzyme-inhibitor complexes before the start of the kinase reaction, which was initiated by the addition of 3 μL 1.67-fold concentrated solution (in assay buffer) of adenosine-tri-phosphate (ATP, 10 μM final concentration) and peptide substrate (1 μM final concentration). The resulting mixture (5 μL final volume) was incubated at 22° C. during 60 min, and the reaction was stopped by the addition of 5 μL of an aqueous EDTA-solution (50 mM EDTA, in 100 mM HEPES pH 7.5 and 0.2% (w/v) bovine serum albumin) which also contained the TR-FRET detection reagents (0.2 μM streptavidin-XL665 [Cisbio Bioassays, Codolet, France] and 1 nM anti-phosho-Serine antibody [Merck Millipore, cat. #35-001] and 0.4 nM LANCE EU-W1024 labeled anti-mouse IgG antibody [Perkin-Elmer, product no. AD0077, alternatively a Terbium-cryptate-labeled anti-mouse IgG antibody from Cisbio Bioassays can be used]). The stopped reaction mixture was further incubated 1 h at 22° C. in order to allow the formation of complexes between peptides and detection reagents. Subsequently, the amount of product was evaluated by measurement of the resonance energy transfer from the Eu-chelate-antibody complex recognizing the Phosphoserine residue to the streptavidin-XL665 bound to the biotin moiety of the peptide. To this end, the fluorescence emissions at 620 nm and 665 nm after excitation at 330-350 nm were measured in GTR-FRET plate reader, e.g. a Rubystar or Pherastar (both from BMG Labtechnologies, Offenburg, Germany) or a Viewlux (Perkin-Elmer) and the ratio of the emissions (665 nm/622 nm) was taken as indicator for the amount of phosphorylated substrate. The data were normalised using two sets of (typically 32-) control wells for high- (=enzyme reaction without inhibitor=0%=Minimum inhibition) and low- (=all assay components without enzyme=100%=Maximum inhibition) Bub1 activity. IC50 values were calculated by fitting the normalized inhibition data to a 4-parameter logistic equation (Minimum, Maximum, IC50, Hill; Y=Max+(Min−Max)/(1+(X/IC50)Hill)).

[2] = tested on: HeLa cell line; assay: Proliferation assay (crystal violet staining); type: cell-based; conditions: Homo sapiens, 96 h, 4 days incubation, range 0.001-10 μM, median, read-out: Biological Assay 2: Proliferation assay (HeLa cell line) median IC50
Procedure: Cultivated tumor cells (cells were ordered from ATCC, except HeLa-MaTu and HeLa-MaTu-ADR, which were ordered from EPO-GmbH, Berlin) were plated at a density of 1000 to 5000 cells/well, depending on the growth rate of the respective cell line, in a 96-well multititer plate in 200 μL of their respective growth medium supplemented 10% fetal calf serum. After 24 h, the cells of one plate (zero-point plate) were stained with crystal violet (see below), while the medium of the other plates was replaced by fresh culture medium (200 μL), to which the test substances were added in various concentrations (0 μM, as well as in the range of 0.001-10 μM; the final concentration of the solvent DMSO was 0.5%). The cells were incubated for 4 days in the presence of test substances. Cell proliferation was determined by staining the cells with crystal violet: the cells were fixed by adding 20 μL/measuring point of an 11% glutaric aldehyde solution for 15 min at rt. After three washing cycles of the fixed cells with water, the plates were dried at rt. The cells were stained by adding 100 μL/measuring point of a 0.1% crystal violet solution (pH 3.0). After three washing cycles of the stained cells with water, the plates were dried at rt. The dye was dissolved by adding 100 μL/measuring point of a 10% acetic acid solution. Absorbtion was determined by photometry at a wavelength of 595 nm. The change of cell number, in percent, was calculated by normalization of the measured values to the aborbtion values of the zero-point plate (=0%) and the absorbtion of the untreated (0 μm) cells (=100%). The IC50 values were determined by means of a 4 parameter fit.

T1 sequence (O43683 704-1085): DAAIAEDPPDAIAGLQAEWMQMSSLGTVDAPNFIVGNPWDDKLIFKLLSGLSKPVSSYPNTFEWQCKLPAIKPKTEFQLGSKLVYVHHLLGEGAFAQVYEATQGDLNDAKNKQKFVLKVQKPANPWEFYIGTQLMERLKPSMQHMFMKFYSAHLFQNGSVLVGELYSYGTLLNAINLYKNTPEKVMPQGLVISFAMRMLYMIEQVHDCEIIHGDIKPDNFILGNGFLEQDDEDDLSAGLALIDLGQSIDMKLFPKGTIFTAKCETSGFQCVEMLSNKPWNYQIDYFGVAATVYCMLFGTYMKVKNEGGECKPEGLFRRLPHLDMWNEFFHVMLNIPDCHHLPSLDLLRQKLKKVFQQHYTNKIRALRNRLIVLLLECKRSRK

| SMILES | IC50 [1] | IC50 [2] |
| --- | --- | --- |
| CCOc1cc(F)c(Cn2nc(-c3ncc(OCCN(C)C)c(Nc4ccncc4)n3)c3c2CCC3)c(F)c1 [Example 2-3-1, 5-[2-(dimethylamino)ethoxy]-2-[1-(4-ethoxy-2,6-difluorobenzyl)-1,4,5,6-tetrahydrocyclopenta[c]pyrazol-3-yl]-N-(pyridin-4-yl)pyrimidin-4-amine] | 9 nM | 1000 nM |
| CCOc1cc(F)c(Cn2nc(-c3ncc(OCCN4CCCC4)c(Nc4ccncc4)n3)c3c2CCC3)c(F)c1 [Example 2-3-3, 2-[1-(4-ethoxy-2,6-difluoro-benzyl)-1,4,5,6-tetrahydrocyclopenta [c]pyrazol-3-yl]-N-(pyridin-4-yl)-5-[2-(pyrrolidin-1-yl)ethoxy] pyrimidin-4-amine] | 20 nM | 1000 nM |
| CCOC(=O)c1cnccc1Nc1nc(-c2nn(Cc3ccccc3F)c3c2CCC3)ncc1OCC1(CO)COC1 [Example 2-3-4, ethyl 4-[(2-[1-(2-fluoro-benzyl)-1,4,5,6-tetrahydrocyclopenta [c]pyrazol-3-yl]-5-{[3-(hydroxymethyl)oxetan-3-yl]methoxy}pyrimidin-4-yl)amino] nicotinate] | 40 nM | ≥ 10000 nM |
| N#Cc1cnccc1Nc1nc(-c2nn(Cc3ccccc3F)c3c2CCC3)ncc1OCC1(CO)COC1 [Example 2-3-5, 4-[(2-[1-(2-fluoro-benzyl)-1,4,5,6-tetrahydrocyclopenta [c]pyrazol-3-yl]-5-{[3-(hydroxymethyl)oxetan-3-yl]methoxy}pyrimidin-4-yl)amino] nicotinonitrile] | 40 nM | 4000 nM |
| CS(=O)(=O)CCCOc1cnc(-c2nn(Cc3ccccc3F)c3c2CCC3)nc1Nc1ccncc1C(N)=O [Example 2-3-9, 4-({2-[1-(2-fluoro-benzyl)-1,4,5,6-tetrahydrocyclopenta [c]pyrazol-3-yl]-5-[3-(methyl-sulfonyl)propoxy]pyrimidin-4-yl}amino) nicotinamide] | 100 nM | ≥ 10000 nM |
| CCOc1cc(F)c(Cn2nc(-c3ncc(O)c(N(CCN(C)C)c4ccncc4)n3)c3c2CCC3)c(F)c1 [Example 2-4-1, 4-{[2-(dimethylamino)ethyl](pyridin-4-yl)amino}-2-[1-(4-ethoxy-2,6-difluorobenzyl)-1,4,5,6-tetrahydrocyclopenta[c]pyrazol-3-yl]pyrimidin-5-ol] | 200 nM | ≥ 10000 nM |
| CCOc1cc(F)c(Cn2nc(-c3ncc(O)c(N(CCN4CCCC4)c4ccncc4)n3)c3c2CCC3)c(F)c1 [Example 2-4-2, 2-[1-(4-ethoxy-2,6-difluoro-benzyl)-1,4,5,6-tetrahydrocyclopenta [c]pyrazol-3-yl]-4-{pyridin-4-yl[2-(pyrrolidin-1-yl)ethyl]amino} pyrimidin-5-ol] | 900 nM | ≥ 10000 nM |
| NC(=O)c1cnccc1Nc1nc(-c2nn(Cc3ccccc3F)c3c2CCC3)ncc1OCCO [Example 2-10-1, 4-({2-[1-(2-fluorobenzyl)-1,4,5,6-tetrahydrocyclopenta[c]pyrazol-3-yl]-5-(2-hydroxyethoxyl)pyrimidin-4-yl}amino)nicotinamide] | 70 nM | 50000 nM |
| NC(=O)c1cnccc1N(CCO)c1nc(-c2nn(Cc3ccccc3F)c3c2CCC3)ncc1OCCO [Example 2-10-2, 4-[{2-[1-(2-fluoro-benzyl)-1,4,5,6-tetrahydrocyclopenta [c]pyrazol-3-yl]-5-(2-hydroxy-ethoxy)pyrimidin-4-yl}(2-hydroxy-ethyl)amino] nicotinamide] | 2000 nM | ≥ 10000 nM |
| N#Cc1cnccc1Nc1nc(-c2nn(Cc3ccccc3F)c3c2CCC3)ncc1OCCO [Example 2-11-1, 4-({2-[1-(2-fluorobenzyl)-1,4,5,6-tetrahydrocyclopenta[c]pyrazol-3-yl]-5-(2-hydroxyethoxyl)pyrimidin-4-yl}amino)nicotinonitrile] | 400 nM | ≥ 10000 nM |
| CS(=O)(=O)CCOc1cnc(-c2nn(Cc3ccccc3F)c3c2CCC3)nc1Nc1ccncc1C(N)=O [Example 2-13-1, 4-({2-[1-(2-fluorobenzyl)-1,4,5,6-tetrahydrocyclopenta[c]pyrazol-3-yl]-5-[2-(methylsulfonyl)ethoxy]pyrimidin-4-yl}amino)nicotinamide] | 30 nM | ≥ 10000 nM |

Continued, values first:

| IC50 [1] | IC50 [2] | SMILES |
| --- | --- | --- |
| 100 nM | ≥ 10000 nM | COc1ccc(Cn2nc(-c3ncc(O)c(Nc4ccncc4)n3)c3c2CCC3)cc1 [Example 2-2-3, 2-[1-(4-methoxy-benzyl)-1,4,5,6-tetrahydrocyclopenta [c]pyrazol-3-yl]-4-(pyridin-4-ylamino) pyrimidin-5-ol] |
| 6 nM | ≥ 10000 nM | CCOc1cc(F)c(Cn2nc(-c3ncc(OCC4(CO)COC4)c(Nc4ccncc4)n3)c3c2CCC3)c(F)c1 [Example 2-3-2, {3-[({2-[1-(4-ethoxy-2,6-difluoro-benzyl)-1,4,5,6-tetrahydrocyclopenta [c]pyrazol-3-yl]-4-(pyridin-4-ylamino)pyrimidin-5-yl}oxy)methyl]oxetan-3-yl}methanol] |
| 10 nM | ≥ 10000 nM | COc1cnc(-c2nn(Cc3ccccc3F)c3c2CCC3)nc1Nc1ccncc1C(N)=O [Example 2-5-1, 4-({2-[1-(2-fluorobenzyl)-1,4,5,6-tetrahydrocyclopenta[c]pyrazol-3-yl]-5-methoxypyrimidin-4-yl}amino)nicotinamide] |
| 30 nM | ≥ 10000 nM | CCOC(=O)c1cnccc1Nc1nc(-c2nn(Cc3ccccc3F)c3c2CCC3)ncc1O [Example 2-8-1, ethyl 4-({2-[1-(2-fluorobenzyl)-1,4,5,6-tetrahydrocyclopenta[c]pyrazol-3-yl]-5-hydroxypyrimidin-4-yl}amino)nicotinate] |
| 4 nM | 4000 nM | CCOc1cc(F)c(Cn2nc(-c3ncc(OCCO)c(Nc4ccncc4)n3)c3c2CCC3)c(F)c1 [Example 2-11-2, 2-({2-[1-(4-ethoxy-2,6-difluoro-benzyl)-1,4,5,6-tetrahydrocyclopenta [c]pyrazol-3-yl]-4-(pyridin-4-ylamino)pyrimidin-5-yl}oxy) ethanol] |
